Patent publication US20240254119A1 (THIRD HARMONIC BIO, INC., priority 2022, published 2024)
Read-outs that look alike come from different tables or passages of the source.

Columns and labels:
[1] = Three time point assay for plasma, brain and testes distribution after oral dosing; format: in vivo, rat; conditions: for Brain concentration / Kp brain/plasma / Kp testes/plasma / Plasma concentration / Testes concentration / concentration at 0.5 h / Kp at 0.5 h / concentration at 2 h / Kp at 2 h / concentration at 7 h / Kp at 7 h: rat, oral dosing; for concentration at 0.5 h / Kp at 0.5 h / concentration at 2 h / Kp at 2 h / concentration at 7 h / Kp at 7 h: male, SD, 10 mg/kg; for brain penetration as indicated by Kp (Cbrain/Cplasma): result in words
Method: Exemplary compounds were tested for distribution in plasma, brain and testes tissue following oral dosing of the compounds in rats. Procedures and results are described below.
Male SD Rats were group-housed (up to four animals/sex/cage) in polysulfone cages with certified aspen wood bedding during acclimation and study period.
Certified rodent diet and water was provided to all animals ad libitum, unless fasting for study procedures.
Appropriate amount of test article was accurately weighed and mixed with an appropriate volume of vehicle to get a clear solution or a uniform suspension; vortexing or sonication in water bath may also be need. Animals were dosed within four hours after the formulation is prepared.
For PO dosing, the dose formulation was administered via oral gavage following facility SOPs. The dose volume was determined by the animals' body weight collected on the morning of dosing day. The dose was 10 mg/kg.
Each blood collection (about 1 mL per time point at one or more of 0.5 h, 2 h, 3 h, 5.3 h, and 7 h) was performed from jugular vein or other suitable site of each animal into pre-chilled commercial EDTA-K2 tubes and placed on wet ice until centrifugation.
Blood samples were processed for plasma by centrifugation at approximately 4° C., 3,200 g for 10 min. Plasma was collected respectively and transferred into pre-labeled 96 well plate or polypropylene tubes, quick frozen over dry ice and kept at −60° C. or lower until LC-MS/MS analysis.
Rat brain was perfused with PBS to remove blood before harvest.
After perfusion, brain and testis were homogenized using homogenizing buffer (15 mM PBS (pH7.4):MeOH=2:1) at the ratio of 1:9 (1 g tissue with 9 mL buffer, the dilution ratio is 10). The brain homogenate was kept at −60° C. or lower until LC-MS/MS analysis. General sample processing procedure (brain homogenate & testis homogenate) using 96-well plate: • 1). An aliquot of 40 μL unknown sample, calibration standard, quality control and dilution quality control (if have), single blank, and double blank sample was added to the 96-well plate respectively; • 2). Each sample (except the double blank) was quenched with 400 μL of IS1 respectively (double blank sample was quenched with 400 μL of I), and then the mixture was vortex-mixed for 10 min at 800 rpm and centrifuged for 15 min at 3220×g, 4° C.; • 3). An aliquot of 50 μL supernatant was transferred to another clean 96-well plate and centrifuged for 5 min at 3220×g, 4° C., then the supernatant was directly injected for LC-MS/MS analysis.
• 1. A LC-MS/MS method for the quantitative determination of test compound in biological matrix was developed under Non-GLP compliance. • 2. A calibration curve with at least 6 non-zero calibration standards was applied for the method including LLOQ. • 3. A set of QCs consisting of low, middle, and high concentrations were applied for the method. • 4. N in 1 cassette LC-MS/MS method was developed for samples coming from different studies and the interference among all cassette analytes was evaluated during the method development. • 5. Cassette administration assay was performed if the mass difference (Δmass) among different analytes was more than 4 Da. In this case, interference evaluation was not necessary.
• 1. If sample number within a batch was ≤12, at least one set of standard curve separated with two parts through begin and end of the sequence, was included in the run, and QCs were not required. The recommended injection order was C8, C6, C4, C2, study samples, C7, C5, C3, C1. • 2. If sample number within a batch was >12, one standard curve and two sets of QCs with low, middle and high concentrations were applied for bioanalysis. Meanwhile, QCs number should be more than 5% of study sample number. • 3. Samples with the same types of matrix in different studies were quantified in one analysis run by using the developed N in 1 cassette LC-MS/MS method. • 4. […]

[2] = molecular target: T1, wtKIT (Homo sapiens, UniProt P10721); experiment: HTRF biochemical assay, wtKIT (phosphorylation of a peptide substrate); conditions: Table 4
T1 construct: 1888289AM in the reaction mixtures
T1 sequence (P10721 26-976): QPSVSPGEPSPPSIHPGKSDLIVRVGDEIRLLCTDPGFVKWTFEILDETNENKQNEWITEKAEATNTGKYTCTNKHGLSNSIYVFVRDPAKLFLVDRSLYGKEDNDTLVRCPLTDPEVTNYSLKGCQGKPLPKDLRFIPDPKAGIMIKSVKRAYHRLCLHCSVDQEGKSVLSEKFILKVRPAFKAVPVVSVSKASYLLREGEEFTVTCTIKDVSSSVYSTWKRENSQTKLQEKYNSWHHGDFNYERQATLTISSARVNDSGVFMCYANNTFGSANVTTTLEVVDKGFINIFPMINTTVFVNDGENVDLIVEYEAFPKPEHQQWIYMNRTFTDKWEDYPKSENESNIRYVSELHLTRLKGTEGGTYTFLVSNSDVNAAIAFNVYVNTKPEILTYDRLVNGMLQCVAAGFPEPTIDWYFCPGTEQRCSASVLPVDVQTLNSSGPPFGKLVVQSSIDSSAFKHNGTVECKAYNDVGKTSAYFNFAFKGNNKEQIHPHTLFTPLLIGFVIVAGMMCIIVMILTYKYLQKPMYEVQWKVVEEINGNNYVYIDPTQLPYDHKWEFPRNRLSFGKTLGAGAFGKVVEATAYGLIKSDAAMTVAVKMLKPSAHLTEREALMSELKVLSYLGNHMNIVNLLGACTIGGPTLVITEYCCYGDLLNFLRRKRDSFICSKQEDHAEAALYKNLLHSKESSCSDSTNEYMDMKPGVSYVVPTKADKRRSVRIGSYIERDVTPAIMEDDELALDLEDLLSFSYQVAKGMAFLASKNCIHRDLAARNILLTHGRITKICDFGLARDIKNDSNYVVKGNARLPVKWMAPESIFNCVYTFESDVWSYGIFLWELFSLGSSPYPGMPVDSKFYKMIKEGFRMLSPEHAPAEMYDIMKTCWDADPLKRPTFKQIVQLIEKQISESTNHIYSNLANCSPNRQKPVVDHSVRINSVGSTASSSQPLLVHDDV
Method in brief: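 HTRF read-out of FAM-peptide (1 µM) phosphorylation after anti-phosphotyrosine antibody addition and EDTA quench. Reaction: 5.0 nM wtKIT, 400 µM ATP, 10 mM Mn2+, HEPES pH 7.5, 1% DMSO, 3 h, 25 °C; optional enzyme-compound preincubation; enzyme level set for 10-20% conversion.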

Row | SMILES | Brain concentration ([1]; time point 2 h) | Kp brain/plasma ([1]; time point 2 h) | Kp testes/plasma ([1]; time point 2 h) | Plasma concentration ([1]; time point 2 h) | Testes concentration ([1]; time point 2 h) | IC50 [2] | also measured
1 | COC(=O)N1CC(c2nc(-c3ccc(Cl)c(NC(=O)c4cnc5ccccn45)c3)no2)C1 [Compound I-339] | 603 ng/g | 0.50 | 0.79 | 1200 ng/mL | 947 ng/g | ≤ 50 nM | –
2 | Cc1ccc(-c2noc([C@H]3C[C@@H]3F)n2)cc1NC(=O)c1cnc2cc(OC(F)(F)F)ccn12 [Compound I-87] | 954 ng/g | 0.68 | 0.71 | 1480 ng/mL | 989 ng/g | 50 to 500 nM | Brain concentration ([1]; time point 0.5 h): 248 ng/g; Kp brain/plasma ([1]; time point 0.5 h): 0.60; Kp testes/plasma ([1]; time point 0.5 h): 0.38; Plasma concentration ([1]; time point 0.5 h): 454 ng/mL; Testes concentration ([1]; time point 0.5 h): 159 ng/g; Brain concentration ([1]; time point 7 h): 1730 ng/g; Kp brain/plasma ([1]; time point 7 h): 0.36; Kp testes/plasma ([1]; time point 7 h): 0.34; Plasma concentration ([1]; time point 7 h): 4970 ng/mL; Testes concentration ([1]; time point 7 h): 1650 ng/g
3 | Cc1ccc(-c2noc([C@H]3CC(F)(F)CN3)n2)cc1NC(=O)c1cnc2ccccn12 [Compound I-359] | 52.7 ng/g | 0.02 | 0.12 | 2950 ng/mL | 345 ng/g | 50 to 500 nM | –
4 | Cc1ccc(-c2noc([C@H]3C[C@@H]3F)n2)cc1NC(=O)c1cnc2cc(COCC(C)(C)O)ccn12 [Compound I-71, N-[5-[5-[(1R,2S)-2-fluorocyclopropyl]-1,2,4-oxadiazol-3-yl]-2-methyl-phenyl]-7-[(2-hydroxy-2-methyl-propoxy)methyl]imidazo[1,2-a]pyridine-3-carboxamide] | – | – | – | – | – | ≤ 50 nM | concentration at 0.5 h ([1]; brain, time point 0.5 h, read-out: Brain concentration): 91.8 ng/g; Kp at 0.5 h ([1]; brain, time point 0.5 h, read-out: Kp brain/plasma): 0.05; concentration at 2 h ([1]; brain, time point 2 h, read-out: Brain concentration): 169 ng/g; Kp at 2 h ([1]; brain, time point 2 h, read-out: Kp brain/plasma): 0.05; concentration at 7 h ([1]; brain, time point 7 h, read-out: Brain concentration): 126 ng/g; Kp at 7 h ([1]; brain, time point 7 h, read-out: Kp brain/plasma): 0.03; concentration at 0.5 h ([1]; plasma, time point 0.5 h, read-out: Plasma concentration): 1810 ng/mL; concentration at 2 h ([1]; plasma, time point 2 h, read-out: Plasma concentration): 3420 ng/mL; concentration at 7 h ([1]; plasma, time point 7 h, read-out: Plasma concentration): 4110 ng/mL; Kp at 0.5 h ([1]; testes, time point 0.5 h, read-out: Kp testes/plasma): 0.09; concentration at 0.5 h ([1]; testes, time point 0.5 h, read-out: Testes concentration): 166 ng/g; Kp at 2 h ([1]; testes, time point 2 h, read-out: Kp testes/plasma): 0.19; concentration at 2 h ([1]; testes, time point 2 h, read-out: Testes concentration): 653 ng/g; Kp at 7 h ([1]; testes, time point 7 h, read-out: Kp testes/plasma): 0.18; concentration at 7 h ([1]; testes, time point 7 h, read-out: Testes concentration): 739 ng/g; brain penetration as indicated by Kp (Cbrain/Cplasma) [1]: do not significantly penetrate the brain or minimally penetrate the brain
5 | Cc1ccc(-c2noc(C3CC(OCCF)C3)n2)cc1NC(=O)c1cnc2ccccn12 (stereo not drawn) [Compound I-369] | 1940 ng/g | 1.19 | 1.27 | 1630 ng/mL | 2060 ng/g | ≤ 50 nM | –
6 | Cc1ccc(-c2noc(CC(=O)O)n2)cc1NC(=O)c1cnc2ccccn12 [Compound I-335] | 0 ng/g | – | – | 16.7 ng/mL | 0 ng/g | 50 to 500 nM | –
7 | Cc1ccc(-c2noc([C@H]3C[C@@H]3F)n2)cc1NC(=O)c1cnc2cc(OC(C)C)ccn12 [Compound I-88] | 1200 ng/g | 0.14 | 0.16 | 8390 ng/mL | 1330 ng/g | ≤ 50 nM | Brain concentration ([1]; time point 0.5 h): 722 ng/g; Kp brain/plasma ([1]; time point 0.5 h): 0.27; Kp testes/plasma ([1]; time point 0.5 h): 0.19; Plasma concentration ([1]; time point 0.5 h): 2640 ng/mL; Testes concentration ([1]; time point 0.5 h): 480 ng/g; Brain concentration ([1]; time point 7 h): 1250 ng/g; Kp brain/plasma ([1]; time point 7 h): 0.15; Kp testes/plasma ([1]; time point 7 h): 0.21; Plasma concentration ([1]; time point 7 h): 9200 ng/mL; Testes concentration ([1]; time point 7 h): 1950 ng/g
8 | COCCOCc1ccn2c(C(=O)Nc3cc(-c4noc([C@H]5C[C@@H]5F)n4)ccc3C)cnc2c1 [Compound I-84] | 400 ng/g | 0.07 | 0.11 | 5900 ng/mL | 655 ng/g | ≤ 50 nM | brain penetration as indicated by Kp (Cbrain/Cplasma) [1]: do not significantly penetrate the brain or minimally penetrate the brain
9 | COc1ccn2c(C(=O)Nc3cc(-c4noc(CC(O)C(F)F)n4)ccc3C)cnc2c1 (single isomer, unassigned) [Compound I-76] | – | – | – | – | – | ≤ 50 nM | Brain concentration ([1]; time point 3 h): 55.9 ng/g; Kp brain/plasma ([1]; time point 3 h): 0.09; Kp testes/plasma ([1]; time point 3 h): 0.41; Plasma concentration ([1]; time point 3 h): 598 ng/mL; Testes concentration ([1]; time point 3 h): 246 ng/g
10 | COC(=O)N1CC(c2nc(-c3ccc(C(F)F)c(NC(=O)c4cnc5ccccn45)c3)no2)C1 [Compound I-225] | 506 ng/g | 0.15 | 0.33 | 3420 ng/mL | 1140 ng/g | ≤ 50 nM | –
11 | Cc1nc(-c2ccc(C)c(NC(=O)c3cnc4ccccn34)c2)no1 [Compound I-360] | 3420 ng/g | 0.94 | 0.81 | 3650 ng/mL | 2960 ng/g | ≤ 50 nM | –
